The values that follow are results of earlier work, collected in US6593300B1, “(3R)-3-amino-4-carboxybutyraldehyde derivatives inhibiting the release of interleukin-1/beta” (Gyogyszerkutato Intezet Kft., priority 1997, dated 2003).

In data set [1] the target is T1, ICE (IL-1β converting enzyme) (Homo sapiens, UniProt P29466).
T1 sequence (P29466 120-297): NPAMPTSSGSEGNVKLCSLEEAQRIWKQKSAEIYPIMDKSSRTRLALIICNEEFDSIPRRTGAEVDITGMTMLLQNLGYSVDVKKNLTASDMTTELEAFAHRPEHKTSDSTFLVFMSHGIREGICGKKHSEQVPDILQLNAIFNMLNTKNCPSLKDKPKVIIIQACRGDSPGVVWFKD
T1 sequence (P29466 317-404): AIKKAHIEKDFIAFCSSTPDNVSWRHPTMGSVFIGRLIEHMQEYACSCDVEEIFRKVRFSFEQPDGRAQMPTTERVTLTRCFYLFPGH
The following applies: literature reports.

Another data set deals with T2, ICE (Mus musculus, UniProt P29452).
T2 construct: in the mouse, in the “tissue chamber” model as well as in lipopolysaccharide (LPS) induced fever or septic shock models; host or cells: mouse (whole animal, endogenous enzyme)
T2 sequence (P29452 119-296 limits assumed): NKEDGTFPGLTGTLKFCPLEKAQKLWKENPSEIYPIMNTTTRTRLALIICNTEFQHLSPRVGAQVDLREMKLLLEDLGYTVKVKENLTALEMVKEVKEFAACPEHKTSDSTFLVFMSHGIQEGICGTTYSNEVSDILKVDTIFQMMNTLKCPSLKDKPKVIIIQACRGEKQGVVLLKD
T2 sequence (P29452 315-402 limits assumed): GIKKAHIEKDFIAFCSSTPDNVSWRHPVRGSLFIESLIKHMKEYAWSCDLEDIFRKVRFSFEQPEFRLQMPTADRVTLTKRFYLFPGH
Conditions: "tissue chamber" model, LPS induced fever or septic shock models.

With `O=c1oc(Cl)c(Cl)c2ccccc12` [3,4-dichloro-isocoumarine], the ICE inhibiting effect entry in data set [1] is on record as “inhibited”.

For `CC(C)C[C@H](NC(=O)[C@H]1O[C@@H]1C(=O)O)C(=O)NCCCCN=C(N)N` [Example E64], the ICE inhibiting effect result in data set [1] is on record as “not inhibited”.

Take `O=C(O)CC(CC(=O)COC(=O)c1c(Cl)cccc1Cl)NC(=O)OCc1ccccc1` (centres unmarked) [Z-AhAsp-CH2DCB, Z-NH—CH(CH2COOH)—CH2—CO—CH2DCB]: the ICE inhibiting effect entry in data set [1] was “ineffective”.

As for `O=C(O)C[C@H](NC(=O)OCc1ccccc1)C(=O)COC(=O)c1c(Cl)cccc1Cl` [Z-Asp-CH2DCB, Z-NH—CH(CH2COOH)—CO—CH2DCB], the ICE inhibiting effect entry in data set [1] is recorded as “significant ICE inhibiting effect”.

As to “Ac-Tyr-Val-Ala-Asp-H: first reversible inhibitor of ICE, tetrapeptide aldehyde”, the in vivo efficacy result in the data set with ICE is “confirmed”.
